In general, EC50 refers to the concentration at which the effect is half-maximal. For orientation: solubility means the dissolved amount per volume that the medium holds.

≈ marks a conversion by molar mass, not a printed value.

Consider four compounds from patent US9056048B2, “Synthesis and use of cationic steroids for anti-inflammatory drug therapy” (priority 2001, dated 2015).

In data set [1] the test system is GRE promoter construct (pGRE-SEAP). The data set can be described thus: Induction of transcription from GRE (GRE-SEAP promoter construct) in 293 cells. The class given is cell-based. How it is done:
293 cells were lipofected with GRE-SEAP plasmid in triplicate using 1 μg plasmid and 6 μg Lipofectamine per well in 24-well plates. […] After 24 hr of induction, 50 μl aliquots of growth media were analyzed for alkaline phosphatase activity using the SEAP fluorogenic assay following the manufacturer's instructions.

Data set [2] can be described thus: Hyaluronic acid release assay (dialysis). How it is done:
Hyaluronic acid sodium salt (Rooster Comb HA; Sigma) was diluted in PBS at 1 mg/ml to mimic an anionic glycosaminoglycan at a nominal interstitial concentration.

Data set [3] concerns neutrophils in the i.p. space. The data set can be described thus: Thioglycollate (TG) model of inflammation. Format: in vivo, BALB/c mice. How it is done: Male, 6- to 8-week-old (20 g) BALB/c mice, six per group, were used. […] After 30 minutes, mice were injected i.p. with 1.5 mL of 3% TG in PBS containing 1% ethanol. At 4 hour post-TG, the i.p. fluid was collected and neutrophils were counted.

Another data set deals with mouse lung. As to the kind of experiment: AAV vectors co-formulated with DS or DS/D2S, intranasal instillation. Format: in vivo, C57Bl/6 mice. How it is done:
Cationic liposomes (DS/D2S) in a 1:1 mole ratio with DOPE (51 μg total lipid) were mixed with AAV (10^11 GC/dose) in equal volume at room temperature for 15 minutes prior to instillation. C57Bl/6 mice (6 to 8 weeks of age) were anesthetized by an i.p. injection of a 3:2 mixture of xylazil:ketamine. For dosing, mice were suspended from their dorsal incisors (hind quarters supported) and a dose of 10^11 GC of AAV vector was delivered as a 50 μl bolus into the nostrils.
To evaluate luciferase transgene expression, 250 μl of a 15 mg/ml luciferin solution (Caliper Life Sciences, Hopkinton, Mass.) was injected per 25 gram body mass by i.p. injection. Five minutes after luciferin injection the mice were anesthetized by an i.p. injection of a 3:2 mixture of xylazil:ketamine. Animals were imaged 15 minutes after the original luciferin injection with a high sensitivity CCD Xenogen IVIS bioluminescent imaging system (Caliper Life Sciences).
For lacZ transgene expression evaluation, lungs were harvested and inflated with a 1:1 mixture of PBS and OCT embedding compound. One lobe was then submerged in OCT, frozen in isopentane cooled with liquid nitrogen, and cryosectioned ([…]). Sections were fixed in 0.5% glutaraldehyde in PBS (Electron Microscopy Sciences, Hatfield, Pa.) for 10 minutes (4° C.) and then washed twice in PBS/1 mM MgCl2 (4° C.) and stained with X-gal substrate (5-bromo-4-chloro-3-indoyl-β-D-galactopyranoside) for 16 hours at 37° C. to reveal LacZ-positive cells. After being washed in PBS, sections were counterstained with nuclear fast red, dehydrated through a graded ethanol series and xylene, coverslipped, and imaged. The other lobe was placed in 2 ml of Lysis Buffer (Roche, Indianapolis, Ind.) and placed on ice. Directly after all samples were collected, each sample was homogenized for approximately 10 seconds. […] A mouse β-galactosidase enzyme-linked immunosorbent assay (ELISA) (Roche) was used on lung homogenates according to the manufacturer's instructions to quantitatively measure LacZ gene expression. […]

Another data set concerns osteoblasts. The data set can be described thus: In vitro bone culture inflammatory model, qRT-PCR transcripts. The class given is cell-based, murine. Conditions: for reduction in IL-6 transcripts over control: qRT-PCR normalized to GAPDH; for OPG/RANKL ratio: transcripts, qRT-PCR. On the technique in general: Quantitative PCR measures a nucleic acid by following its amplification.

The next data set in a line: physchem. Conditions: water.
In data set [4] the test system is bovine aortic endothelial cells. As to the kind of experiment: Lipofection of BAEC with EGFP plasmid. The class given is cell-based. The conditions noted are these: alone, unconjugated.
Method: Bovine aortic endothelial cells (BAEC, passage 4-13) were passaged at a 1:3 split to 24-well culture plates, and then grown to dense confluence before lipofection. Growth medium was Dulbecco's modified Eagle's medium (DMEM) containing 10% heat inactivated charcoal-filtered (to remove steroid hormones) fetal calf serum (Hyclone), 0.30 mg/ml glutamine, 150 U/ml penicillin, and 0.15 mg/ml streptomycin (Gibco). 293 cells were grown under identical conditions. The plasmids pEGFP-N3 and pGRE-SEAP (Clontech) were used for expression of EGFP or secreted alkaline phosphatase under the regulation of CMV or GRE promoters, respectively. […] In other experiments, Lipofectamine 2000 (Invitrogen), in a 1:1 (wt) ratio with nucleic acid, was used according to the manufacturer's instructions.
For fluorescence microscopy and flow cytometry, pEGFP-N3 plasmid (Clontech, Palo Alto, Calif.) was used to generate GFP as the fluorescent reporter transgene protein. Cells were transfected in 6-well plates with each condition in duplicate. One day after GFP transfection, cells were imaged and then harvested in 500 ul PBS and kept on ice until analysis. A BD Biosciences (Franklin Lakes, N.J.) FACSCalibur flow cytometer was used to obtain fluorescence data with 50,000 counts recorded per condition.
EGFP expression was calibrated using 0 to 200 ng recombinant GFP (Clontech) in 750 μl PBS. […]
The subject of a further data set is mouse lungs. The data set can be described thus: AdV vector formulated with lipid, intranasal delivery to mouse lungs. The class given is in vivo, C57Bl/6 mice. Also on record: key: 0 (normal, no inflammation); mild (+) monocytic infiltrate and congestion; +++ (extensive inflammation). The conditions noted are these: day 7.

From the text for mouse lungs: E1/E3-deleted replication-deficient, recombinant adenovirus vectors (2-4.5×10^12 GC/ml stock) expressing either a LacZ or a AlkP reporter were created as previously described in Gao et al. (1996, J. Virol. 70:8934-8943) by homologous recombination between the shuttle plasmid that carries the transgene and the 5′ end of the adenovirus genome with E1 deleted and 3′ end of H5.sub360 in which the E3 gene was inactivated by a small deletion. The recombinant viruses were propagated in 293 cells and purified by the standard CsCl gradient sedimentation method. The replication-deficient AAV2/5CBntLacZ contains the LacZ gene with a nucleus localization sequence at its N-terminus, under the transcriptional control of the chicken h-actin promoter. The AAV (2/5) vector (˜2×10^12 GC/ml stock) was produced by transcapsidation in 293 cells using a triple transfection method and purified by CsCl gradient sedimentation as described in Gao et al. (2002, Proc. Natl. Acad. Sci. USA 99:11854-11859).
C57Bl/6 mice (6 to 8 weeks of age) were anesthetized by an i.p. injection of a 3:2 mixture of xylazil (20 mg/ml):ketamine (100 mg/ml). For dosing, mice were suspended from their dorsal incisors (hind quarters supported) and a dose of 10^11 GC of AdV or AAV vector was delivered as a 50-μl bolus into the nostrils using a gel-loading tip (Finnpippette). […]
Method for osteoblasts: For co-cultures with osteoblasts, bone marrow cells (1×10^5 cells/well in 96-well plates) were co-cultured with calvarial osteoblasts (1×10^4 cells/well) in α-minimal essential medium containing 10% fetal bovine serum and supplemented with 20 nM 1α, 25(OH)2D3 and 1 μM prostaglandin E2 (PGE2) for 9 days. […] Co-cultures treated with Vitamin D3 (VitD3) were treated at 20 nM.
For transcript analysis, total RNA was isolated using the Absolutely RNA microprep kit (Stratagene, La Jolla, Calif.). RNA was reverse transcribed using Superscript III reverse transcriptase and oligo(dT) (Invitrogen, Carlsbad, Calif.), and complementary DNA was purified using Qiagen's PCR purification kit (Valencia, Calif.). Complementary DNA from untreated samples was used for optimizing PCR conditions, with primers targeting the gene of interest. For the gene RANKL, the forward primer was 5′-[sequence]-3′ and the reverse primer was 5′-[sequence]-3′, for the OPG gene the forward primer was 5′-[sequence]-3′ and the reverse primer was 5′-[sequence]-3′, for the IL-6 gene the forward primer was 5′-[sequence]-3′ and the reverse primer was 5′-[sequence]-3′. In order to normalize the expression levels, GAPDH was used as a housekeeping gene with forward primer 5′-[sequence]-3′ and reverse primer 5′-[sequence]-3′. A standard curve was created using the untreated controls and the optimized PCR conditions for each set of primers on a Roche LightCycler 480 (Indianapolis, Ind.). Quantitative real-time PCR was performed using the LightCycler FastStart DNA MasterPLUS SYBR Green I kit with melting curve analysis provided by the LightCycler software.
TNF-α is utilized as an inflammatory cytokine to initiate the NF-κB pathway and subsequent effect on RANKL.

For `CC1C[C@H]2[C@@H]3CCC4=CC(=O)C=C[C@]4(C)[C@@]3(F)C(O)C[C@]2(C)[C@@]1(O)C(=O)CSCCCC(=N)NCCCNCCCCNCCCN.O=C(O)C(F)(F)F` (stereo partly drawn) [DS, N-[3-({4-[(3-aminopropyl)amino]butyl}amino)propyl]-4-[(9-fluoro-11,17-dihydroxy-16-methyl-3,20-dioxopregna-1,4-dien-21-yl)sulfanyl]butanimidamide-TFA Salt], in data set [1] (100 nM, 293 cells), the “SEAP transcription from GRE promoter” value is on record as “statistically significant levels of SEAP transcription”. In addition, the 50% effective concentration (EC50) in data set [1] (Homo sapiens, HEK293, read-out: EC50 of transcription from GRE promoter construct (pGRE-SEAP)) was 10 to 100 nM. Also, in data set [2] (24 hour period), the “fraction eluted from HA” value was “only a small fraction”. Moreover, the “half-life for dissociation from HA” value in data set [2] (in PBS) came out at 56 h. For the same compound, in data set [2] (physiological salt buffer), the “time remaining tightly bound to HA” value is “over 24 hours”. In addition, the “reduction in neutrophil immigration versus vehicle” value in data set [3] (5.85 mg/kg i.p. 30 minutes before TG, 4 hour post-TG) was 60%. Also, the lethality entry in data set [3] (tested dose 5.85 mg/kg i.p.) is on record as “not lethal”. For the same compound, in the data set on mouse lung (AAV2/6.2, ELISA, day 28), the “lacZ transgene level in lung homogenate compared to control” value is recorded as “higher average transgene levels”. In addition, the “luciferase luminescence in the lung” value in the data set with mouse lung (AAV2/9, day 28) is given as “minimal luminescence in the lung”. Moreover, in the data set with mouse lung (day 56, formulation at day 0, re-administration day 28), the “LacZ gene expression versus AAV2/9-LacZ alone (readministered control)” value was determined as 2 fold. For the same compound, in the data set on osteoblasts, the “reduction in IL-6 transcripts over control” value is listed as 17% and the OPG/RANKL ratio worked out at 1.67. Also, in the data set “physchem”, the solubility was more than 100000 µg/mL.
For `NCCCNCCCCNCCCN` [Spermine, spermine], the gene transfer activity entry in data set [4] is “no detectable gene transfer activity”.
Turning to `C[C@@H]1C[C@H]2[C@@H]3CCC4=CC(=O)C=C[C@]4(C)[C@@]3(F)[C@@H](O)C[C@]2(C)[C@@]1(O)C(=O)CO` [dexamethasone, reference compound], in the data set on mouse lungs, the “lung inflammation score by blinded pathologist” value is given as 0. The “reduction in IL-6 transcripts over control” value in the data set with osteoblasts is recorded as 72%. In “physchem”, this compound came in with a solubility of 100 µg/mL (≈ 255 µM).
As to TNF-α, the OPG/RANKL ratio in the data set on osteoblasts was 0.12.
